Reference: patent US8344028B2, “Gamma-amino-butyric acid derivatives as GABAB receptor ligands” (XenoPort, Inc., priority 2009, dated 2013)

molecular target: GABAB receptor (Homo sapiens, UniProt Q9UBS5); experiment: GABAB receptor agonist or partial agonist activity by binding, electrophysiology, cAMP and/or Ca2+ assay methods (Examples 83-86); type: cell-based
Method: An assay using rat cerebral cortex membranes was used to determine the affinity of GABAB receptor ligands for the GABAB receptor.
An assay buffer of 50 mM Tris pH 7.4 was prepared with 100 μM of isoguvacine, to block GABAA interactions. The assay buffer with isoguvacine was used for dilution of membranes, compounds, and radiolabel.
Rat cerebral cortex membranes were diluted in assay buffer at 1 mg/mL and aliquoted into a 96-well plate at 900 μL/well. Buffer or test compound were added at 20-times final concentration in the buffer at 50 μL/well. Membranes and test compounds or buffer were incubated for 10 min. at room temperature. Radiolableled [S—(R*,R*)]-[3-[[1-(3,4-dichlorophenyl)ethyl]amino]-2-hydroxypropyl](cyclohexylmethyl) phosphinic acid (CGP54626) was then added at 50 μL/well in the buffer at 1-10 nM concentration in 50 μl. […] The assay mixture was filtered using Brandell filtration apparatus and GFB filters, washed twice with 3 mL of 4° C., 50 mM Tris pH 7.4, buffer without isoguvacine. The filters were then dried at room temperature and the dried filters punched out and placed in individual vials. Three (3) mL of scintillation fluid was added to each vial and the radiolabel counted on the scintillation counter. The inverse amount of radiolabel was indicative of binding of a test compound to the GABAB receptor.
The following procedure was used to determine the level of intracellular cAMP. Recombinant HEK cells expressing the GABAB R1a2 receptor were used in the experiments. cAMP levels were measured using a cAMP XS^+ HitHunter™ Chemiluminescence Assay Kit (90-0075-02, GE Healthcare Biosciences Corp.). Cells were seeded overnight at 5,000 cells per well, in black, clear bottom 96-well plates. The following morning, cells were washed twice with 100 μL PBS per well. Forskolin was weighed out and dissolved in DMSO to a final concentration 100 mM. One-hundred (100) μM forskolin solutions were prepared in PBS with and without test compound at 1-times final concentration. Thirty (30) μL of the test solutions were added to the wells and incubated for 1 h at room temperature. The cAMP concentration was determined according to the protocol described in the cAMP assay kit, maintaining the plate at room temperature and in the dark. […] Each well was read for 6 seconds. The untransformed data was then analyzed.
The following procedure was used to determine the GABAB receptor agonist activity of a compound as reflected by activation of Ca^2+ signaling. HEK TREx cells expressing GABABR1a2 under tetracycline induction control, and Gqi chimeric protein (expressed constitutively), allowing GABABR coupling through the Ca^2+ signaling pathway were used in the experiments.
Cells were seeded in media containing tetracycline overnight at 100,000 cells/well, in black, clear-bottom, 96-well plates. The following morning, cells were washed twice with 100 μL HBSS buffer per well. Fluorescent Ca^2+ indicator dye was prepared using the materials and procedure described in the F362056 Fluo-4 NW Calcium Assay Kit (Invitrogen, Carlsbad, Calif.). Ten (10) mL of kit buffer and 100 μl of kit Probenecid were added to individual kit dye vials, and rolled back and forth several times to dissolve the dye. Cells were then loaded into the dye solution at 50 μL per well. The cells and dye were incubated for 30 min at 37° C., and then incubated for an additional 30 min at room temperature in the dark. Test compounds are dissolved in HBSS buffer at twice final concentration. Duplicate wells were used for each unique condition. Solution containing the test compound was added to the wells using a FLEXStation II (Molecular Devices, Sunnyvale, Calif.). Using the instrument in kinetic mode in which each well was read every 2 sec over a total collection time of 50 sec fluorescence was measured using an excitation wavelength 494 nm and a detection wavelength of 516 nm. A normalized fluorescence value for each well was calculated using the following procedure.

Sequence of GABAB receptor (Q9UBS5 20-961): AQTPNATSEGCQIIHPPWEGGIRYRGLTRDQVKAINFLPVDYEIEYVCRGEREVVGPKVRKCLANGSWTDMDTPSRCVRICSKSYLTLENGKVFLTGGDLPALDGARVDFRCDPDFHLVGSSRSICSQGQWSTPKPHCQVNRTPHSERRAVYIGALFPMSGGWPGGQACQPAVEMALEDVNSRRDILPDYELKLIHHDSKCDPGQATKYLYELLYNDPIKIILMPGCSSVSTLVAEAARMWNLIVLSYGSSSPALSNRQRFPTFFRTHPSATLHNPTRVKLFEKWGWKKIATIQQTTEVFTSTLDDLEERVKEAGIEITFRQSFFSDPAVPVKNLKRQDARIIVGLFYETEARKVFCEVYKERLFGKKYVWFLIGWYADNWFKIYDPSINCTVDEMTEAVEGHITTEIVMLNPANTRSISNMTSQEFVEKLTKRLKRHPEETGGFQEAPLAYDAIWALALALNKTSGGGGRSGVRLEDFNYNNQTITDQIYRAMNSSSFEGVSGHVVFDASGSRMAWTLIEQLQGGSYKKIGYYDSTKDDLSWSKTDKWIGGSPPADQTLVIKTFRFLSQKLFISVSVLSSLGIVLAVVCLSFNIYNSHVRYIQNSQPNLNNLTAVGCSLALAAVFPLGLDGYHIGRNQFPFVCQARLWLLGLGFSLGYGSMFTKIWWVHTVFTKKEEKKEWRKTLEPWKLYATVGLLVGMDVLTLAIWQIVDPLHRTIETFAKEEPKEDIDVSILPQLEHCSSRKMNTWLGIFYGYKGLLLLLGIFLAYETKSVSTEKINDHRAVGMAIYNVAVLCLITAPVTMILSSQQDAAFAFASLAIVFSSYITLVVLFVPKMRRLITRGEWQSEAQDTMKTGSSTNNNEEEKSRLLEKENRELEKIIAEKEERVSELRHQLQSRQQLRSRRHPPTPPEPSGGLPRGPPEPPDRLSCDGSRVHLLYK
Sequence of GABAB receptor (O75899 42-941 partner): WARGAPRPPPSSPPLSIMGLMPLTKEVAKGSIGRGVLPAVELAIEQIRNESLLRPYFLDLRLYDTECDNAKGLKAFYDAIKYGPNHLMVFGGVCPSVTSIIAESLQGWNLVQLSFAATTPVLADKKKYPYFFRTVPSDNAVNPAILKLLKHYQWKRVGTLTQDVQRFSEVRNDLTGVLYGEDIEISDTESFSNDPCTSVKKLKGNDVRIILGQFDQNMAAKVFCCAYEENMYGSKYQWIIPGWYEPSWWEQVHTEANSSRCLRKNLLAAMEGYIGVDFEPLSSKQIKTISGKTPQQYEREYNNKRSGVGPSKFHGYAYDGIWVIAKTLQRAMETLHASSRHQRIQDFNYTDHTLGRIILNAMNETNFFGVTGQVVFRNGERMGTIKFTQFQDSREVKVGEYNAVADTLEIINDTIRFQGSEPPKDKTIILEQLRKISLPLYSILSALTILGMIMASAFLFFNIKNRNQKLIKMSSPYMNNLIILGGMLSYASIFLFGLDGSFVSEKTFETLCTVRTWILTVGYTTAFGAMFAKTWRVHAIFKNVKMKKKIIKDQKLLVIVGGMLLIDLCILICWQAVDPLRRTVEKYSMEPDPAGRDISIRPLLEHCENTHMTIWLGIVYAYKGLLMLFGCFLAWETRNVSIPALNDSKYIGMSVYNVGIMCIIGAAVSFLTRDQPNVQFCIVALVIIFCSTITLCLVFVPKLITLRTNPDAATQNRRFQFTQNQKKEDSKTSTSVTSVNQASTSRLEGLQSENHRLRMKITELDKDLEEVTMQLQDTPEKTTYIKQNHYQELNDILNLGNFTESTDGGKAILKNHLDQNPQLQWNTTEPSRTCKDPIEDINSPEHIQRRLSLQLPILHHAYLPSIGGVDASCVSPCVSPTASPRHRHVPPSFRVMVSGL

Molecule | GABAB receptor agonist or partial agonist activity
Cl.NC[C@H](CC(=O)O)c1ccc(Cl)c(-c2cccc(C(=O)O)n2)c1 [6-{5-[(1R)-2-amino-1-(carboxymethyl)ethyl]-2-chlorophenyl}pyridine-2-carboxylic acid hydrochloride] | agonist or partial agonist activity
Cl.NC[C@H](CC(=O)O)c1ccc(Cl)c(-c2ccc(CC(=O)O)cc2)c1 [(3R)-4-amino-3-{3-[4-(carboxymethyl)phenyl]-4-chlorophenyl}butanoic acid hydrochloride] | agonist or partial agonist activity
NC[C@H](CC(=O)O)c1ccc(Cl)c(NC(=O)c2ccccn2)c1 [(3R)-4-amino-3-[4-chloro-3-(2-pyridylcarbonylamino)phenyl]butanoic acid] | agonist or partial agonist activity
Cl.NCc1cccc(-c2cccc([C@H](CN)CC(=O)O)c2)c1 [(3R)-4-amino-3-{3-[3-(aminomethyl)phenyl]phenyl}butanoic acid hydrochloride] | agonist or partial agonist activity
Cl.N#Cc1cccc(-c2cc([C@H](CN)CC(=O)O)ccc2Cl)c1F [(3R)-4-amino-3-[4-chloro-3-(3-cyano-2-fluorophenyl)phenyl]butanoic acid hydrochloride] | agonist or partial agonist activity
NC[C@H](CC(=O)O)c1ccc(Cl)c(-c2ccsc2)c1 [(3R)-4-amino-3-[4-chloro-3-(3-thienyl)phenyl]butanoic acid] | agonist or partial agonist activity
Cl.NC[C@H](CC(=O)O)c1ccc(Cl)c(-c2cncc3ccccc23)c1 [(3R)-4-amino-3-(4-chloro-3-(4-isoquinolyl)phenyl)butanoic acid hydrochloride] | agonist or partial agonist activity
NC[C@H](CC(=O)O)c1ccc(Cl)c(-c2cncc(C(F)(F)F)c2)c1 [(3R)-4-amino-3-{4-chloro-3-[5-(trifluoromethyl)(3-pyridyl)]phenyl}butanoic acid] | agonist or partial agonist activity
Cl.NC[C@H](CC(=O)O)c1ccc(Cl)c(Oc2ccncc2)c1 [(3R)-4-amino-3-(4-chloro-3-(4-pyridyloxy)phenyl)butanoic acid hydrochloride] | agonist or partial agonist activity
Cc1cc(-c2cc([C@H](CN)CC(=O)O)ccc2Cl)ccc1Cl.Cl [(3R)-4-amino-3-[4-chloro-3-(4-chloro-3-methylphenyl)phenyl]butanoic acid hydrochloride] | agonist or partial agonist activity
Cl.NC[C@H](CC(=O)O)c1ccc(Cl)c(-c2ccc(Cl)c(Cl)c2)c1 [(3R)-4-amino-3-[4-chloro-3-(3,4-dichlorophenyl)phenyl]butanoic acid hydrochloride] | agonist or partial agonist activity
(3R)-4-amino-3-{4-chloro-3-[(2-pyridyl)carbonylamino]phenyl)carbonylamino]phenyl}butanoic acid | agonist or partial agonist activity
Cl.N#Cc1ccc(C(=O)O)cc1-c1cc([C@H](CN)CC(=O)O)ccc1Cl [3-{5-[(1R)-2-amino-1-(carboxymethyl)ethyl]-2-chlorophenyl}-4-cyanobenzoic acid hydrochloride] | agonist or partial agonist activity
NC[C@H](CC(=O)O)c1ccc(Cl)c(CCCC(=O)O)c1 [4-{5-[(1R)-2-amino-1-(carboxymethyl)ethyl]-2-chlorophenyl}butanoic acid] | agonist or partial agonist activity
Cl.NC[C@H](CC(=O)O)c1ccc(Cl)c(OCc2ccccc2)c1 [(3R)-4-amino-3-[4-chloro-3-(phenylmethoxy)phenyl]butanoic acid hydrochloride] | agonist or partial agonist activity
Cl.NC[C@H](CC(=O)O)c1ccc(Cl)cc1C(=O)c1ccccc1 [Example 11, (3R)-4-Amino-3-[4-chloro-2-(phenylcarbonyl)phenyl]butanoic acid hydrochloride] | agonist or partial agonist activity
Cl.N#Cc1cc(Cl)cc(-c2cc([C@H](CN)CC(=O)O)ccc2Cl)c1 [(3R)-4-amino-3-[4-chloro-3-(5-chloro-3-cyanophenyl)phenyl]butanoic acid hydrochloride] | agonist or partial agonist activity
NC[C@H](CC(=O)O)c1ccc(Cl)c(NCc2cccnc2)c1 [(3R)-4-amino-3-{4-chloro-3-[(3-pyridylmethyl)amino]phenyl}butanoic acid] | agonist or partial agonist activity
Cc1ncc(-c2cc([C@H](CN)CC(=O)O)ccc2Cl)cn1.Cl [Example 30, (3R)-4-Amino-3-[4-chloro-3-(2-methylpyrimidin-5-yl)phenyl]butanoic acid hydrochloride] | agonist or partial agonist activity
Cl.NC[C@H](CC(=O)O)c1ccc(Cl)c(NCc2ccco2)c1 [(3R)-4-amino-3-{4-chloro-3-[(2-furylmethyl)amino]phenyl}butanoic acid hydrochloride] | agonist or partial agonist activity
Cl.N#Cc1cccc(-c2cc([C@H](CN)CC(=O)O)ccc2Cl)n1 [(3R)-4-amino-3-[4-chloro-3-(6-cyano(2-pyridyl))phenyl]butanoic acid hydrochloride] | agonist or partial agonist activity
CN(C(=O)c1ccccc1)c1cc([C@H](CN)CC(=O)O)ccc1Cl.Cl [(3R)-4-amino-3-[4-chloro-3-(N-methylphenylcarbonylamino)phenyl]butanoic acid hydrochloride] | agonist or partial agonist activity
Cl.NC[C@H](CC(=O)O)c1ccc(Cl)c(-c2cccc(CO)c2)c1 [Example 28, (3R)-4-Amino-3-{4-chloro-3-[3-(hydroxymethyl)phenyl]phenyl}butanoic acid hydrochloride] | agonist or partial agonist activity
Cl.NC[C@H](CC(=O)O)c1ccc(Cl)c(-c2ccc(C(=O)O)cc2Cl)c1 [Example 44, 4-{5-[(1R)-2-Amino-1-(carboxymethyl)ethyl]-2-chlorophenyl}-3-chlorobenzoic acid hydrochloride] | agonist or partial agonist activity
Cl.NC[C@H](CC(=O)O)c1ccc(Cl)c(NCc2ccc([N+](=O)[O-])cc2)c1 [(3R)-4-amino-3-(4-chloro-3-{[(4-nitrophenyl)methyl]amino}phenyl)butanoic acid hydrochloride] | agonist or partial agonist activity
CN(C)c1cccc(-c2cc([C@H](CN)CC(=O)O)ccc2Cl)c1.Cl [Example 41, (3R)-4-Amino-3-{3-[3-(dimethylamino)phenyl]-4-chlorophenyl}butanoic acid hydrochloride] | agonist or partial agonist activity
Cl.NC[C@H](CC(=O)O)c1ccc(Cl)c(-c2ccncc2)c1 [(3R)-4-amino-3-(4-chloro-3-(4-pyridyl)phenyl)butanoic acid hydrochloride] | agonist or partial agonist activity
